Source: patent publication US20110104695A1, “METHODS OF PREDICTING THERAPEUTIC EFFICACY OF CANCER THERAPY” (Epigenomics AG, priority 2009, published 2011)

How the values were obtained:
TFAP2E [1] = assay: TFAP2E mRNA expression by RT-PCR in CRC cell lines after drug treatment; type: cell-based, human
Protocol: Colon cancer cell lines LOVO and DLD-1 were obtained from the Deutsche Sammlung von Mikroorganismen und Zellkulturen GmbH (Braunschweig, Germany). SW480, HT-29, HCT-116 and CACO-2 colon cancer cell lines were obtained from ATCC (Washington, D.C., USA). Cells were cultured in 90% DMEM medium supplemented with 10% fetal bovine serum and 2 mM L-glutamine (Invitrogen, Karslruhe, Germany). CACO-2 cells were maintained in 80% DMEM with 20% FBS. […] Culture medium was changed daily for 3 days with recurrent 5-aza-2-deoxycytidine additions. After 3 days, the cells were harvested for total RNA extraction with the RNeasy Total RNA Mini Kit (Qiagen, Hilden, Germany).
The RNA and DNA extraction from cell lines or 10-25 mg of frozen tissue samples was carried out using the RNeasy Total RNA Mini Kit or the QIAmp DNA Mini Kit (Qiagen, Hilden, Germany) respectively, using the manufacturer's instructions.
(§1) Genomic DNA was treated with the Epitect Bisulfite Conversion Kit (Qiagen, Hilden, Germany) according to the manufacturer's instructions and then analyzed using the MethyLight technique or MS-HRM as previously described. Cutoff values giving the best discrimination between non-neoplastic mucosa and tumor samples were determined by receiver operating characteristic (ROC) analysis. The expression analysis of the mRNA was performed by RT-PCR with the Verso cDNA Kit (Thermo Fischer, Darmstadt, Germany) according to the manufacturer's instructions.

TFAP2E [2] = assay: MethyLight analysis of TFAP2E methylation in CRC cell lines; type: cell-based, human; details: all CRC cell lines; after 5-azacytidine treatment
Protocol: (§2) Colon cancer cell lines LOVO and DLD-1 were obtained from the Deutsche Sammlung von Mikroorganismen und Zellkulturen GmbH (Braunschweig, Germany). SW480, HT-29, HCT-116 and CACO-2 colon cancer cell lines were obtained from ATCC (Washington, D.C., USA). Cells were cultured in 90% DMEM medium supplemented with 10% fetal bovine serum and 2 mM L-glutamine (Invitrogen, Karslruhe, Germany). CACO-2 cells were maintained in 80% DMEM with 20% FBS. Cells were seeded at a density of 1×10^6 cells/60-mm dish, after twenty-four hours incubated with 5-aza-cytidine (final concentration 10 μmol/L; Sigma, Munich, Germany) or the same amount of DMSO as control. Culture medium was changed daily for 3 days with recurrent 5-aza-2-deoxycytidine additions. After 3 days, the cells were harvested for total RNA extraction with the RNeasy Total RNA Mini Kit (Qiagen, Hilden, Germany).
Primers for methylated TFAP2E covered CpGs in the second CpG island (FIG. 5). […]
as §1, with “The expression analysis of the mRNA was performed by RT-PCR with the Verso cDNA Kit (Thermo Fischer, Darmstadt, Germany) according to the manufacturer's instructions.” left out

DKK4 = DKK4 mRNA expression in untransfected CRC cell lines; type: cell-based, human; details: SW480 and CACO-2 cells; after 5-azacytidine treatment
Protocol: as §2
as §1, with “The expression analysis of the mRNA was performed by RT-PCR with the Verso cDNA Kit (Thermo Fischer, Darmstadt, Germany) according to the manufacturer's instructions.” left out

colorectal cancer = assay: Treatment response in colorectal cancer patient cohorts (RECIST or histology); type: in vivo, human; details: Cohort IV (München), primary rectal cancer, chemoradiotherapy (intravenous 5-FU and 45.0 Gy), 68 patients, histological criteria
Protocol: Samples were obtained from patients undergoing colorectal cancer surgery or chemotherapy at the University Hospitals in Munich, Mannheim, Bochum, Berlin and Dresden (all Germany). Tissues were obtained during resection of the primary tumor or by biopsy. […] Response to chemotherapy was assessed by RECIST criteria, response to chemoradiotherapy by histology as previously described.

SW480 cells = assay: Cell survival after drug exposure (MTT assay), transfected SW480 cells

CC(/C=C/C(=O)NO)=C\[C@@H](C)C(=O)c1ccc(N(C)C)cc1 [Trichostatin A]
TFAP2E expression after treatment (TFAP2E [1]; CACO-2 cells, Trichostatin A treatment): weak expression
TFAP2E mRNA levels (TFAP2E [1]; CRC cell lines except CACO-2, Trichostatin A treatment): no effect

Nc1ncn([C@@H]2O[C@H](CO)[C@@H](O)[C@H]2O)c(=O)n1 [5-azacytidine]
TFAP2E expression (RT-PCR) (TFAP2E [1]; CACO-2 and SW480 cells, 5-aza-cytidine 10 μmol/L, 3 days): showed expression after 5-aza-cytidine treatment only
TFAP2E methylation (MethyLight) (TFAP2E [2]): declined
DKK4 expression (DKK4): lost

O=c1[nH]cc(F)c(=O)[nH]1 [5-FU, 5-fluorouracil]
patients classified as responders (colorectal cancer): 47%
responsiveness to 5-FU (SW480 cells; SW480 transfected with both pTFAP2E and pcDNA3-Dkk4): intermediate responsiveness
decrease in survival compared to controls (SW480 cells; SW480 transiently transfected with pTFAP2E, 5-FU 50 μg/ml, after 2 days): about 20%
increase in survival compared to controls (SW480 cells; SW480 transiently transfected with pcDNA3-Dkk4, 5-FU 50 μg/ml, after 2 days): about 10%
